According to patent publication US7989446B2, “4-amino 5-cyanopyrimidine derivatives” (Otsuka Pharmaceutical Co., Ltd., priority 2004, dated 2011):

Experiments:
[1] = target: T1, adenosine A2a receptor (Human) (Homo sapiens, UniProt P29274); experiment: c-AMP generating action in cell expressing adenosine A2a receptor; format: cell-based; conditions: HEK293 cell expressing human A2a; 100% = c-AMP caused by 1 μM CGS-21680; read-out: A2a Agonistic Action (EC50)
T1 construct: host or cells: HEK293
Method: (1) c-AMP Generating Action in Cell Expressing Adenosine A2a Receptor
The test was carried out as mentioned below with reference to the method disclosed in the reference (Klotz k. N. et al., Naunyn-Schmiedeberg's Arch. Pharmacol., (1998) 357, 1-9; Shryock J. C. et al., Molecular Pharmacology, (1998) 53, 886-893).
As to the cell, HEK293 cell expressing adenosine A2a receptor (Human) (PerkinElmer Life Sciences, Code No. RBHA2AC) was used.
As to the culture medium, Dulbecco's modified Eagles medium (DMEM) including 10% FBS (Fetal bovine serum) and 1 mM of sodium pyruvate was used.
The cell was placed on 96 well plate (1×10^5/well), and cultured overnight. After removing off the supernatant, to each well, 0.1 ml of DMEM (without FBS) containing 20 mM HEPES, 0.1 mM of IBMX (3-isobutyl-1-methylxanthine) and 2 unit/mL adenosine deaminase was added, and they were incubated at 37° C. for 30 minutes. To each well, 0.1 ml of the culture medium including the DMSO solution of the test compound in an appropriate concentration was added and they were incubated for additional 30 minutes. After removing off the supernatant, the cytolytic solution was added to quench the reaction. The amount of c-AMP in each well was measured by using the c-AMP enzyme immunoassay (EIA) system (Amersham Biosciences, Code No. RPN225).
The same assay was repeated using CGS-21680 (2-p-carboxyethyl)phenethylamino-5′-N-ethylcarboxamidoadenosine hydrochloride, (Sigma, code C141) as reference compound. The amount of resultant c-AMP in the medium, caused by 1 μM of reference compound, was defined to be 100%. A concentration of assayed compound in the medium, producing 50% c-AMP amounts, was calculated to be EC50 value.

A1 receptor = target: T2, A1 receptor (Rattus norvegicus, UniProt P25099); experiment: Adenosine A1 agonistic action ([35S]GTPγS binding, rat cerebral cortex cell membrane); format: biochemical, male Wistar rats; conditions: percentage to 100% of CPA 1 μM
T2 construct: cerebral cortex of male Wistar rats (Charles River Japan, Inc) was extirpated; from tissue; host or cells: cerebral cortex of male Wistar rats, cell membrane preparation
T2 sequence (P25099 1-326): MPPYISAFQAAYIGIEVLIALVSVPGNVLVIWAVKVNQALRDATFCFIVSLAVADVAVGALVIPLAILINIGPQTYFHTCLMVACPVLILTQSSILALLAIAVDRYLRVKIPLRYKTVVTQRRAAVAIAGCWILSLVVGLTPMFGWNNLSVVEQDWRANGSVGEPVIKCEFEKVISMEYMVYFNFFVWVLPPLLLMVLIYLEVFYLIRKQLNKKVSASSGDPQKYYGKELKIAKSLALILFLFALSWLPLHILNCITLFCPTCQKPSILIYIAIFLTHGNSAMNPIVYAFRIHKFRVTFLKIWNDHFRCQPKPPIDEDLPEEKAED
Method: (2) Adenosine A1 Agonistic Action
The test was carried out as mentioned below with reference to the method disclosed in the literature (Shryock J. C. et al., Molecular Pharmacology, (1998) 53, 886-893; Ito H. et al., European Journal of Pharmacology, (1999) 365, 309-315). That is, cerebral cortex of male Wistar rats (Charles River Japan, Inc) was extirpated, thereto Tris buffer (50 mM Tris-HCl: pH 7.4) was added, it was homogenized, and then centrifuged (1000×g, 10 min). The supernatant was taken, and centrifuged (20,000×g, 20 min). After removing off the supernatant, the precipitate was suspended in Tris buffer, and recentrifuged (20,000×g, 20 min). After removing off the supernatant, the precipitate was suspended in Tris buffer including 2 units/mL ADA (adenosine deaminase) and reserved at −80° C. until used as a liquid preparation of cell membrane for the following tests.
The above liquid preparation of cell membrane in an amount corresponding to 10 μg of cell membrane was added to Tris-buffer comprising 5 mM of MgCl2, 1 mM of EDTA, 1 mM of dithiothreitol, 100 mM of NaCl, 0.01 mM of GDP (guanosine diphosphate), 5 mg/mL of BSA and 2 units/mL of ADA and the mixture was incubated at 25° C. for 30 minutes. Additionally, [^35S]GTPγS (Guanosine 5′-[γ-thio]triphosphate) (the final concentration: 0.4 nM) and the test compound of the given concentration (which was calculated based on the final concentration of the test compound) were added to the mixture and the resulting mixture was incubated at 25° C. for 45 minutes. The reaction mixture was filtrated through a glass fiber filter (unifilter-96 GF/B, Perkin Elmer Life Sciences) to quench reaction. The filter was washed 5 times with ice-cooled Tris-buffer including 5 mM MgCl2. The radioactivity of the filter was measured with Top count NXT(Perkin Elmer Life Sciences). The nonspecific binding was shown as the binding activity of [^35S]GTPγS in the presence of 0.01 mM GTPγS.
The activity (%, A1 agonistic action) of each test compound was calculated on the basis of the test result ([^35S]GTPγS binding activity) derived with 1 μM of CPA (N^6-Cyclopentyladenosine, Sigma, code C-8031) in control which was counted as 100%.

[2] = test system: Intraocular Pressure in Rabbit; experiment: Measuring test for intraocular pressure in rabbit; format: in vivo, Female New Zealand white rabbits; conditions: mean±standard error
Method: (3) Measuring Test for Intraocular Pressure in Rabbit
The test compounds were dissolved in 10 mM of phosphate buffer (pH 7.5) (hereinafter, referred to as “vehicle of ophthalmic preparation”), and they were instilled in a given concentration. In addition, the compounds insoluble in that concentration was used as a suspension. Female New Zealand white rabbits (KITAYAMA LABES Co., Ltd.) whose weights were 2.0-4.0 kg were used.
The measurement of the intraocular pressure was carried out using Pneumatonometer (Model 30 Classic, Mentor company) without anesthesia. In addition, before the measurement of the intraocular pressure, the surface anesthesia with 0.4% oxybuprocaine hydrochloride (“Benoxil” 0.4% ophthalmic solution, Santen Pharmaceutical Co., Ltd.) was carried out.
The animals whose intraocular pressure was stable before instillation were selected, and these animals were divided to every 4 animal in each one group, 50 μL of eye drops including each the test compound was administered to one-sided eye and vehicle was administered to contralateral eye as the control eye. The measurement of intraocular pressure was carried out before instillation and after 0.5, 1, 2, 3, 4 and 6 hours from instillation. The effect on the intraocular pressure was shown as the difference from pre-instillation (ΔIOP, mmHg, mean±standard error). The following Tables 14 and 15 show the results of Control Compounds A and B used as 1% suspensions which are the same as in the pharmacological test (1).
The animals were pretreated as mentioned above, and among them animals whose intraocular pressure was stable before instillation were selected, and these animals were divided to every 5 to 8 animal in each one group. Every two group was used for each of the test compounds. The test compound was administered unilaterally to the eye of the test group rabbit and the intraocular pressure was measured. The vehicle was administered unilaterally to the eye of the control group rabbit and the intraocular pressure was measured. As mentioned above, the measurement of intraocular pressure was carried out before instillation and after 0.5, 1, 2, 3, 4 and 6 hours from instillation, and the effect on the intraocular pressure was shown as the difference from pre-instillation (ΔIOP, mmHg, mean±standard error).

[3] = 0.03% ophthalmic solution, rabbit, instillation, 0.5 hr after instillation, difference from pre-instillation
[4] = 0.03% ophthalmic solution, rabbit, instillation, 1 hr after instillation, difference from pre-instillation
[5] = 0.03% ophthalmic solution, rabbit, instillation, 2 hr after instillation, difference from pre-instillation
[6] = 0.03% ophthalmic solution, rabbit, instillation, 3 hr after instillation, difference from pre-instillation
[7] = 0.03% ophthalmic solution, rabbit, instillation, 4 hr after instillation, difference from pre-instillation
[8] = 0.03% ophthalmic solution, rabbit, instillation, 6 hr after instillation, difference from pre-instillation

T1 sequence (P29274 whole entry): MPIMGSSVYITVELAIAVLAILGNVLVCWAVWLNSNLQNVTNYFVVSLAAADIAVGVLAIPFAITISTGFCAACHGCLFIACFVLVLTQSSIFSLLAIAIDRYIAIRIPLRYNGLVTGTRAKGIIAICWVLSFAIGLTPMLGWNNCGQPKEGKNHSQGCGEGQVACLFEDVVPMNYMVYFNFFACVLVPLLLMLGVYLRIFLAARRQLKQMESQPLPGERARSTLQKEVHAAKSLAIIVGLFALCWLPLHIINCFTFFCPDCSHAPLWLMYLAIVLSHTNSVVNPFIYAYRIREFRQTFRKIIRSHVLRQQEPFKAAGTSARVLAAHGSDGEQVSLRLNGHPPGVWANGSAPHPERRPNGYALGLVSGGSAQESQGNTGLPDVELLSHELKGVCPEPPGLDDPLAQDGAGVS

## CCN(CC)CCN1CCN(C(=O)CCc2cccc(CSc3nc(N)c(C#N)c(-c4ccc(NC(C)=O)cc4)n3)n2)CC1.Cl [Example 79, N-{4-[6-amino-5-cyano-2-(6-{3-[4-(2-diethylaminoethyl)piperazin-1-yl]-3-oxopropyl}pyridin-2-ylmethylsulfanyl)pyrimidin-4-yl]phenyl}acetamide hydrochloride]
[1]
  EC50: 8.4 nM
A1 receptor; test compound 10 nM, hydrochloride
  A1 Agonistic Action (%): 0%
A1 receptor; test compound 100 nM, hydrochloride
  A1 Agonistic Action (%): 12%
A1 receptor; test compound 1 μM, hydrochloride
  A1 Agonistic Action (%): 45%
[2]; [3]
  ΔIOP (mmHg): 0.3 ± 0.9 mmHg
[2]; [4]
  ΔIOP (mmHg): −3.9 ± 0.5 mmHg
[2]; [5]
  ΔIOP (mmHg): −5.4 ± 0.7 mmHg
[2]; [6]
  ΔIOP (mmHg): −5.8 ± 0.8 mmHg
[2]; [7]
  ΔIOP (mmHg): −4.8 ± 0.7 mmHg
[2]; [8]
  ΔIOP (mmHg): −2.8 ± 1.0 mmHg

## CC(=O)Nc1ccc(-c2nc(SCc3cccc(CCC(=O)N4CCN(CCN5CCCC5)CC4)n3)nc(N)c2C#N)cc1.Cl [Example 77, N-{4-[6-amino-5-cyano-2-(6-{3-oxo-3-[4-(2-pyrrolidin-1-ylethyl)piperazin-1-yl]propyl}pyridin-2-ylmethylsulfanyl)pyrimidin-4-yl]phenyl}acetamide hydrochloride]
[1]
  EC50: 9.5 nM
A1 receptor; test compound 10 nM
  A1 Agonistic Action (%): 2%
A1 receptor; test compound 100 nM
  A1 Agonistic Action (%): 18%
A1 receptor; test compound 1 μM
  A1 Agonistic Action (%): 40%
[2]; [3]
  ΔIOP (mmHg): −0.8 ± 0.5 mmHg
[2]; [4]
  ΔIOP (mmHg): −5.0 ± 0.6 mmHg
[2]; [5]
  ΔIOP (mmHg): −5.1 ± 0.4 mmHg
[2]; [6]
  ΔIOP (mmHg): −4.4 ± 0.6 mmHg
[2]; [7]
  ΔIOP (mmHg): −4.9 ± 0.7 mmHg
[2]; [8]
  ΔIOP (mmHg): −3.1 ± 0.7 mmHg

## CCN1CCN(CC2CN(C(=O)CCc3cccc(CSc4nc(N)c(C#N)c(-c5ccc(NC(C)=O)cc5)n4)n3)CCO2)CC1.Cl (stereo not shown) [Example 72, N-{4-[6-amino-5-cyano-2-(6-{3-[2-(4-ethyl-piperazin-1-ylmethyl)morpholin-4-yl]-3-oxopropyl}pyridin-2-ylmethylsulfanyl)pyrimidin-4-yl]phenyl}acetamide hydrochloride]
[1]
  EC50: 13.6 nM
[2]; [3]
  ΔIOP (mmHg): −1.9 ± 0.6 mmHg
[2]; [4]
  ΔIOP (mmHg): −5.3 ± 0.6 mmHg
[2]; [5]
  ΔIOP (mmHg): −4.7 ± 0.6 mmHg
[2]; [6]
  ΔIOP (mmHg): −5.0 ± 0.7 mmHg
[2]; [7]
  ΔIOP (mmHg): −4.0 ± 1.0 mmHg
[2]; [8]
  ΔIOP (mmHg): −1.9 ± 0.9 mmHg

## CC(=O)Nc1ccc(-c2nc(SCc3cccc(CCC(=O)N(C)C4CCN(C)CC4)n3)nc(N)c2C#N)cc1.Cl [Example 67, 3-{6-[4-(4-acetylaminophenyl)-6-amino-5-cyanopyrimidin-2-ylsulfanylmethyl]pyridin-2-yl}-N-methyl-N-(1-methylpiperidin-4-yl)propionamide hydrochloride]
[1]
  EC50: 6.8 nM
[2]; [3]
  ΔIOP (mmHg): −1.1 ± 1.0 mmHg
[2]; [4]
  ΔIOP (mmHg): −5.3 ± 0.7 mmHg
[2]; [5]
  ΔIOP (mmHg): −4.6 ± 0.7 mmHg
[2]; [6]
  ΔIOP (mmHg): −4.6 ± 0.9 mmHg
[2]; [7]
  ΔIOP (mmHg): −4.2 ± 0.7 mmHg
[2]; [8]
  ΔIOP (mmHg): −2.0 ± 0.7 mmHg

## N#Cc1c(N)nc(SCc2csc(-c3ccc(Cl)cc3)n2)c(C#N)c1-c1ccc(OCCO)cc1 [Comparative Compound A, reference compound]
[1]
  EC50: > 1000 nM
A1 receptor; test compound 10 nM
  A1 Agonistic Action (%): 14%
A1 receptor; test compound 100 nM
  A1 Agonistic Action (%): 55%
A1 receptor; test compound 1 μM
  A1 Agonistic Action (%): 79%

## CC(=O)Nc1ccc(-c2nc(SCc3cccc(CCC(=O)N4CCC(N5CCCCC5)CC4)n3)nc(N)c2C#N)cc1.Cl [Example 69, N-(4-{6-amino-2-[6-(3-[1,4′]bipiperidinyl-1′-yl-3-oxopropyl)pyridin-2-ylmethylsulfanyl]-5-cyanopyrimidin-4-yl}phenyl)acetamide hydrochloride]
[1]
  EC50: 7 nM
[2]; 0.01% ophthalmic solution, test group, 0.5 hr
  ΔIOP (mmHg): −1.5 ± 1.0 mmHg
[2]; 0.01% ophthalmic solution, test group, 1 hr
  ΔIOP (mmHg): −4.9 ± 0.7 mmHg
[2]; 0.01% ophthalmic solution, test group, 2 hr
  ΔIOP (mmHg): −3.6 ± 0.4 mmHg
[2]; 0.01% ophthalmic solution, test group, 3 hr
  ΔIOP (mmHg): −3.8 ± 0.7 mmHg
[2]; 0.01% ophthalmic solution, test group, 4 hr
  ΔIOP (mmHg): −2.6 ± 1.0 mmHg
[2]; 0.01% ophthalmic solution, test group, 6 hr
  ΔIOP (mmHg): 0.5 ± 0.9 mmHg

## CC(=O)Nc1ccc(-c2c(C#N)c(N)nc(SCc3ccccn3)c2C#N)cc1 [Comparative Compound B, reference compound]
[1]
  EC50: 14.3 nM
A1 receptor; test compound 10 nM
  A1 Agonistic Action (%): 20%
A1 receptor; test compound 100 nM
  A1 Agonistic Action (%): 63%
A1 receptor; test compound 1 μM
  A1 Agonistic Action (%): 77%
